From paper PMC9131077, “Cytosolic Nudix Hydrolase 1 Is Involved in Geranyl β-Primeveroside Production in Tea” (Frontiers in Plant Science, 2022)

How the values were obtained:
Assay in all cases: LC-MS/MS (MRM) of product GP
Type in all cases: biochemical
CsNUDX1-cyto = molecular target: T1, CsNUDX1-cyto (Camellia sinensis, UniProt A0A4S4EYR7)
T1 construct: gene TEA_005538; full length, 156 residues; E. coli BL21 (DE3) Rosetta, pET15b, N-terminal His-tag, tested with and without tag

AtNUDX1 = molecular target: T2, AtNUDX1 (Arabidopsis thaliana, UniProt Q9CA40); conditions: hydrolysed to GP; His-tagged positive control
T2 construct: gene NUDT1; E. coli BL21 (DE3) Rosetta, His-tag kept
T2 sequence (Q9CA40 whole entry): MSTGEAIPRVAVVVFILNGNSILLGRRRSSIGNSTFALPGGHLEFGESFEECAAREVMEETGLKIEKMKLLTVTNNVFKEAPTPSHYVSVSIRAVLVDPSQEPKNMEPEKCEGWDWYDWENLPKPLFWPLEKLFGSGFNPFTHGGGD

CsNUDX1-chlo-Δ70 = molecular target: T3, CsNUDX1-chlo-Δ70 (Camellia sinensis, UniProt A0A4S4EZL9); conditions: hydrolysed to GP; transit peptide removed
T3 construct: gene TEA_000488; N-terminal 70-residue transit peptide removed from the 220-residue protein; E. coli BL21 (DE3) Rosetta, pET15b, N-terminal His-tag
T3 sequence (A0A4S4EZL9 entry or part of it, stated change not applied): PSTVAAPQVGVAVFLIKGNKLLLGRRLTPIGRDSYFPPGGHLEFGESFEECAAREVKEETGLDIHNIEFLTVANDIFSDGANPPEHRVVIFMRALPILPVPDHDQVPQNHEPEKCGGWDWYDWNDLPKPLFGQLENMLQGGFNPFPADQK

T1 sequence (A0A4S4EYR7 1-156): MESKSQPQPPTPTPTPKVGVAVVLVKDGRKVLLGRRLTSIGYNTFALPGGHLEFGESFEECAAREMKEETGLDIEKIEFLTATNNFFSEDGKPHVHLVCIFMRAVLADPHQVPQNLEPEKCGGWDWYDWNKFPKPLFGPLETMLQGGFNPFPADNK

Structure (SMILES)	LC-MS/MS (MRM) of product GP (CsNUDX1-cyto; from GPP)	LC-MS/MS (MRM) of product GP (CsNUDX1-cyto; hydrolysed to GP, with and without His-tag)	LC-MS/MS (MRM) of product GP (AtNUDX1)	LC-MS/MS (MRM) of product GP (CsNUDX1-chlo-Δ70)
CC(C)=CCC/C(C)=C/COP(=O)(O)O [geranyl monophosphate]	GP was verified in vitro as the direct chemical product of CsNUDX1-cyto	–	–	–
CC(C)=CCC/C(C)=C/COP(=O)(O)OP(=O)(O)O [geranyl pyrophosphate]	–	CsNUDX1-cyto possessed a stronger GPP to GP hydrolysis activity than the Arabidopsis AtNUDX1	stronger GPP to GP hydrolysis activity than the Arabidopsis AtNUDX1	exhibited an increased activity compared to the full length CsNUDX1-chlo
